One experiment addresses T1, HLA-DR2b molecules (Homo sapiens, UniProt P01903+P01911).
T1 construct: made in house; host or cells: L cells co-transfected with HLA-DRA and HLA-DRB1*1501
The experiment can be described thus: competitive ELISA (dissociation-enhanced lanthanide fluoroimmunoassay) with biotinylated CLIP 97-120 as tracer on purified DR2b molecules. It counts as binding. From the text:
DR2b molecules were purified from L cells that had been co-transfected with HLA-DRA and HLA-DRB1*1501, by affinity chromatography using the HLA-DR-specific L243 antibody, as described in Weissert et al. (2001), MHC class II-regulated central nervous system autoaggression and T cell responses in peripheral lymphoid tissues are dissociated in myelin oligodendrocyte glycoprotein-induced experimental autoimmune encephalomyelitits, J. Immunol. 166, 7588-7599. The above publication is incorporated into the present application by reference. The binding assays were performed with a competitive ELISA based on a dissociation-enhanced lanthanide fluoroimmunoassay (Wallac, Turku, Finland). For the competitive ELISA, a 50 nM solution of DR2b molecules was incubated for 48 hours at 37° C. with 50 nM biotinylated CLIP 97-120 in the presence of 250 nM acetylated nonapeptide amide sublibrary or with various concentrations of competitor peptides ranging from 1 nM to 100 μM. The IC50 of a peptide was defined as the concentration of peptide that was required for a 50% inhibition of the binding of the tracer peptide. […]
(In general: In an ELISA, binding on a coated surface is turned into a signal by an enzyme label.)

In experiment [1] the test system is 08073 T cell hybridoma co-incubated with HLA-DR2b-transfected L466 cells. The experiment is described as follows: blocking of MBP 85-99 induced IL-2 secretion by high-affinity ligands for DR2b. It counts as cell-based, mouse. To be noted: 1 μg/ml MBP 85-99, 10 μg/ml peptide, 24 hours; FIG. 1. How it is done: L466 cells and 08073 cells, which were transfected with HLA-DR2b, were co-incubated in the presence of 1 μg/ml MBP 85-99 and 10 μg/ml of various HLA-DR2b peptides; “kein Komp.”=no peptide according to the invention in the batch. After 24 hours the supernatant was collected and the amount of IL-2 present in the supernatant was measured in a mouse-specific IL-2-ELISA.
L466 cells and 08073 cells that were transfected with HLA-DR2b were co-incubated in the presence of 1 μg/ml MBP 85-99 and 10 μg/ml of the HuPb28-variants. After 24 hours the supernatant was collected and the amount of IL-2 present in the supernatant was measured using a mouse-specific IL-2-ELISA.
A T cell hybridoma (08073), which expresses the T cell receptor that is specific for MBP 85-99, which is presented by HLA-DR2b, was provided. After stimulation with MBP 85-99, presented by HLA-DR2b-transfected L466 cells, the 08073 cells secreted significant amounts of IL-2. 5×10^4 08073 cells were co-incubated for 24 hours with 5×10^4 HLA-DR2b-transfected L466 cells in RPMI medium (Invitrogen, Pailey, United Kingdom)/2% FCS (PAA, Linz, Austria)/100 U/ml penicillin, 100 μg/ml streptomycin, 2 mM glutamine (all from Invitrogen) in the presence of 1 μg/ml […] with or without high-affinity peptides (10 μg/ml). The amounts of IL-2 that were secreted in the supernatant were detected using a mouse-IL-2-specific ELISA (BD Biosciences Pharmingen, San Diego, Calif., United States of America).

The test system of a further experiment is HLA-DR2b-transgenic mice. The experiment is described as follows: MOG 35-55-induced EAE, co-immunization experiment. Format: in vivo, mouse. As to the method:
DR2b mice were immunized with the MOG 35-55 peptide in CFA (n=8) or co-immunized with MOG 35-55 and the HuPb11 peptide (SEQ ID No. 17) (n=8) or MOG 35-55 and HuPb28 peptide (SEQ ID No. 9) (n=9). Pertussis toxin (PTX) was administered i.p. on days 0 and 2. The mice were measured daily for EAE and weighed.
The following classifications were used: 0, no disease; 1, weakness or paralysis of the tail; 2, weakness of the hind legs; 3, paralysis of the hind legs; 4, paralysis of the front and hind legs; 5, moribund or death caused by disease.

[2] abbreviates: acetylated nonapeptide amides, 48 hours at 37° C., 50 nM DR2b, 50 nM biotinylated CLIP 97-120, read-out: IC50 for binding to HLA-DR2b molecules.

Where two headings read alike, the source gives them in different places. A value given as a limit tells only on which side of the number the result lay.

The IC50 is the point on the concentration scale where inhibition reaches its midpoint. Take Ac-LILWYSSWP-NH2 [HuPb26, LILWYSSWP]: the IC50 on HLA-DR2b molecules (setting [2]) stood at 1 nM.
On to Ac-DIYWYSSWP-NH2 [HuPb32, DIYWYSSWP], for which the IC50 at HLA-DR2b molecules (setting [2]) was < 1 nM. Moreover, the “IL-2 secretion after stimulation of 08073 cells with MBP 85-99” value (“IL-2 secretion after stimulation” below) in experiment [1] is “significantly reduce IL-2 secretion”.
Ac-LILYYYYYL-NH2 [HuPb23, LILYYYYYL]: the “affinity for HLA-DR2b in words” value on HLA-DR2b molecules is “moderate affinity”.
Ac-GPPERLEFR-NH2 [HuPb19, GPPERLEFR]: the IC50 on HLA-DR2b molecules (setting [2]) was > 100000 nM. For the same substance, the “IL-2 secretion after stimulation” value in experiment [1] was “did not show any effect”.
Turning to Ac-LIYWYSSWL-NH2 [HuPb22, LIYWYSSWL], the IC50 on HLA-DR2b molecules (setting [2]) worked out at 2 nM.
For Ac-MIYWYNSWL-NH2 [HuPb31, MIYWYNSWL], the IC50 on HLA-DR2b molecules (setting [2]) is < 1 nM. In addition, the “IL-2 secretion after stimulation” value in experiment [1] is given as “significantly reduce IL-2 secretion”.
Turning to Ac-LILWYSSWL-NH2 [HuPb24, LILWYSSWL], the IC50 at HLA-DR2b molecules (setting [2]) was found to be 2 nM.
As for Ac-LLYWYSSWP-NH2 [HuPb27, LLYWYSSWP], the IC50 at HLA-DR2b molecules (setting [2]) is < 1 nM. Also, in experiment [1], the “IL-2 secretion after stimulation” value was “only a slight reduction in IL-2 secretion”.
On to Ac-MIYWYSNWL-NH2 [HuPb30, MIYWYSNWL], for which the IC50 at HLA-DR2b molecules (setting [2]) was < 1 nM. Moreover, in experiment [1], the “IL-2 secretion after stimulation” value is on record as “only a slight reduction in IL-2 secretion”.
In the case of Ac-PYEAQELHE-NH2 [HuPb14, PYEAQELHE], at HLA-DR2b molecules (setting [2]), the IC50 is > 100000 nM.
As for Ac-MLIYYSSYL-NH2 [HuPb28, MLIYYSSYL], at HLA-DR2b molecules (setting [2]), the IC50 is < 1 nM. Further, in experiment [1], the “IL-2 secretion after stimulation” value was “significantly reduce IL-2 secretion”. Also, in the experiment on HLA-DR2b-transgenic mice (co-administration of 200 μg peptide with 300 μg MOG 35-55 in CFA at immunization), the “clinical EAE symptoms” value was “reduced the clinical EAE symptoms”. Moreover, the EAE sum value result with HLA-DR2b-transgenic mice (co-immunized with MOG 35-55 and peptide, n=9, p<0.05, FIG. 3) is reported as “reduction in the sum value”.
For the substance Ac-MIYWYSSWD-NH2 [HuPb33, MIYWYSSWD], the IC50 at HLA-DR2b molecules (setting [2]) is 1 nM.
As to Ac-MIYWYSSWL-NH2 [HuPb20, MIYWYSSWL], the 50% inhibitory concentration (IC50) at HLA-DR2b molecules (setting [2]) worked out at 1 nM.
In the case of Ac-MIDWYSSWP-NH2 [HuPb34, MIDWYSSWP], at HLA-DR2b molecules (setting [2]), the IC50 was 1 nM.
The same measure, in the same setting: the result for Ac-FILIYSNLF-NH2 [HuPb29, FILIYSNLF] reads 2 nM.
On to Ac-MIYWYSSWI-NH2 [HuPb21, MIYWYSSWI], for which, on HLA-DR2b molecules (setting [2]), the IC50 came out at 1 nM.
With Ac-KGESGFRDR-NH2 [HuPb17, KGESGFRDR], the IC50 at HLA-DR2b molecules was > 100000 nM. For the same substance, the “IL-2 secretion after stimulation” value in experiment [1] is on record as “did not show any effect”.
With Ac-WGLPEHLER-NH2 [HuPb11, WGLPEHLER], at HLA-DR2b molecules (setting [2]), the half-inhibitory concentration (IC50) is > 100000 nM.

Source of the values: patent US8557959B2, “Allele and isotope-specific intervention on MHC class II molecules associated with autoimmune diseases by means of peptides” (Merck Serono S.A., priority 2007, dated 2013).
